Measurements reported in publication PMC6689975, “Novel Cell Wall Antifungals Reveal a Special Synergistic Activity in pbr1 Mutants Resistant to the Glucan Synthesis Antifungals Papulacandins and Echinocandins” (Frontiers in Microbiology, 2019).
≈ marks a conversion by molar mass, not a printed value.

Tested on: C. albicans wild-type
Test: microbe, parasite or virus in culture
Set-up: species or system whole yeast cells; micro-culture broth dilution MIC in YES at 30 C, turbidity, complete growth inhibition
Settings: Candida albicans, read-out: MIC
Procedure: (§1) Standard YEPD (Yeast Extract, Peptone, Dextrose) ([Sherman, 1990]), YEPD+S (YEPD with 1.2M sorbitol), YES (Yeast Extract, Dextrose and Supplements of Adenine, Histidine, Leucine, Uracil and Lysine) ([Alfa et al., 1993]) and YES+S (YES with 1.2 M sorbitol) ([Ribas et al., 1991]; [Ishiguro et al., 1997]), media were used for determination of MIC values of the tested compounds. A stock solution of 10 mg/ml of each tested compounds was prepared in DMSO and serial dilutions in DMSO were prepared. The final concentration of DMSO was 2% in the YEPD medium. […] The serial dilutions of compounds were dispensed into test tubes with 1 ml of YEPD or YEPD+S to make final concentrations of 200, 100, 50, 25, 12.5, 6.26, 3.125, 1.6, 0.8 and 0.4 μg/ml. The tested yeast strains were previously grown in YEPD, YEPD+S, YES or YES+S agar plates at 30°C for 48 h. Micro-culture assays of large numbers of samples were analyzed as described) ([Martins et al., 2011]). Essentially early log-phase cells were grown in YEPD, YEPD+S, YES or YES+S (1.2 M sorbitol) medium at 30°C, and diluted to cell density of 4 X 10^6 cells/ml in YEPD, YEPD+S, YES or YES+S medium and aliquots of 100 μl were dispensed into each small test tube (3 ml test tube size). Then, another 100 μl of YEPD, YEPD+S, YES or YES+S with the corresponding dilution of each compound at 2X concentration (4% DMSO) was added. The final volume was 200 μl, with the cells diluted to of 2 X 10^6 cells/ml and each compound diluted to 1X final concentration, containing increasing concentrations of antifungal (0, 1, 2, 5, 10, 20, 50, 100 and 200 μg/ml) or an equivalent volume of solvent (2% DMSO). The cells were grown at 30°C in an orbital roller and turbidity was analyzed after 24 and 48 h of incubation. The MIC was determined as the minimal concentration of tested compound that produced complete cell growth inhibition and kept the medium clear. The MIC values were calculated from at least three independent experiments. Next, the first generation of isochromanones (1E-16E) was also screened in YES medium (Table 5) and exerted a weaker antifungal potency than in YEPD medium and also than the second family of isochromanones in YES medium (17E-30E) (Table 6). The strains are partly different from the previously mentioned ones (Tables 5, 6) analyzing two wild type C. albicans strains because they behaved similarly in YEPD. It is remarkable that there was no effect against either the C. albicans, the S. cerevisiae, or the S. pombe wild-type strains, except with 30E.

Row | SMILES | MIC
1 | Cc1cc(C)c(/C=C2/C(=O)OCc3ccccc32)c(C)c1 [18E] | > 200 µg/mL
2 | Cc1ccccc1/C=C1/C(=O)OCc2ccccc21 [20E] | > 200 µg/mL
3 | COc1cccc(/C=C2/C(=O)OCc3ccccc32)c1 [22E] | > 200 µg/mL
4 | O=C1OCc2ccccc2/C1=C\c1ccc(Cl)cc1 [23E] | > 200 µg/mL
5 | O=C1OCc2ccccc2/C1=C\c1cccc([N+](=O)[O-])c1 [24E] | > 200 µg/mL
6 | O=C1OCc2ccccc2/C1=C/c1cccc([N+](=O)[O-])c1 [24Z] | > 200 µg/mL
7 | COc1cc(/C=C2/C(=O)OCc3ccccc32)cc(OC)c1OC [25E] | > 200 µg/mL
8 | COc1ccc(/C=C2/C(=O)OCc3ccccc32)cc1OC [26E, E-4-[(3′,4′-Dimethoxyphenyl)Methylene]-3-Isochromanone] | > 200 µg/mL
9 | O=C1OCc2ccccc2/C1=C\c1cccc(Cl)c1 [28E, E-4-[(3′-Chlorophenyl)Methylene]-3-Isochromanone] | > 200 µg/mL
10 | O=C1OCc2ccccc2/C1=C/c1cccc(Cl)c1 [28Z, Z-4-[(3′-chlorophenyl)methylene]-3-isochromanone] | > 200 µg/mL
11 | O=C1OCc2ccccc2/C1=C\c1ccc(O)cc1 [29E, E-4-[(4′-Hydroxyphenyl)Methylene]-3-Isochromanone] | > 200 µg/mL
12 | COc1cc(/C=C2/C(=O)OCc3ccccc32)ccc1O [30E, E-4-[(4′-Hydroxy-3′-Methoxyphenyl)Methylene]-3-Isochromanone] | > 200 µg/mL

Tested on: T1, S. cerevisiae wild-type CVX12-3A
T1 construct: CVX12-3A
Test: microbe, parasite or virus in culture
Set-up: species or system whole yeast cells; micro-culture broth dilution MIC in YES at 30 C, turbidity, complete growth inhibition
Settings: Saccharomyces cerevisiae, read-out: MIC
Procedure: as §1

Row | SMILES | MIC
13 | Cc1cc(C)c(/C=C2/C(=O)OCc3ccccc32)c(C)c1 [18E] | > 200 µg/mL
14 | Cc1ccccc1/C=C1/C(=O)OCc2ccccc21 [20E] | > 200 µg/mL
15 | COc1cccc(/C=C2/C(=O)OCc3ccccc32)c1 [22E] | > 200 µg/mL
16 | O=C1OCc2ccccc2/C1=C\c1ccc(Cl)cc1 [23E] | > 200 µg/mL
17 | O=C1OCc2ccccc2/C1=C\c1cccc([N+](=O)[O-])c1 [24E] | > 200 µg/mL
18 | O=C1OCc2ccccc2/C1=C/c1cccc([N+](=O)[O-])c1 [24Z] | > 200 µg/mL
19 | COc1cc(/C=C2/C(=O)OCc3ccccc32)cc(OC)c1OC [25E] | > 200 µg/mL
20 | COc1ccc(/C=C2/C(=O)OCc3ccccc32)cc1OC [26E, E-4-[(3′,4′-Dimethoxyphenyl)Methylene]-3-Isochromanone] | > 200 µg/mL
21 | O=C1OCc2ccccc2/C1=C\c1cccc(Cl)c1 [28E, E-4-[(3′-Chlorophenyl)Methylene]-3-Isochromanone] | > 200 µg/mL
22 | O=C1OCc2ccccc2/C1=C/c1cccc(Cl)c1 [28Z, Z-4-[(3′-chlorophenyl)methylene]-3-isochromanone] | > 200 µg/mL
23 | O=C1OCc2ccccc2/C1=C\c1ccc(O)cc1 [29E, E-4-[(4′-Hydroxyphenyl)Methylene]-3-Isochromanone] | > 200 µg/mL
24 | COc1cc(/C=C2/C(=O)OCc3ccccc32)ccc1O [30E, E-4-[(4′-Hydroxy-3′-Methoxyphenyl)Methylene]-3-Isochromanone] | 150 µg/mL (≈ 531 µM)

Tested on: T2, S. pombe wild-type 972 h-
T2 construct: 972 h-
Test: microbe, parasite or virus in culture
Set-up: species or system whole yeast cells; micro-culture broth dilution MIC in YES at 30 C, turbidity, complete growth inhibition
Settings: Schizosaccharomyces pombe, read-out: MIC
Procedure: as §1

Row | SMILES | MIC
25 | Cc1cc(C)c(/C=C2/C(=O)OCc3ccccc32)c(C)c1 [18E] | > 200 µg/mL
26 | Cc1ccccc1/C=C1/C(=O)OCc2ccccc21 [20E] | > 200 µg/mL
27 | COc1cccc(/C=C2/C(=O)OCc3ccccc32)c1 [22E] | > 200 µg/mL
28 | O=C1OCc2ccccc2/C1=C\c1ccc(Cl)cc1 [23E] | > 200 µg/mL
29 | O=C1OCc2ccccc2/C1=C\c1cccc([N+](=O)[O-])c1 [24E] | > 200 µg/mL
30 | O=C1OCc2ccccc2/C1=C/c1cccc([N+](=O)[O-])c1 [24Z] | > 200 µg/mL
31 | COc1cc(/C=C2/C(=O)OCc3ccccc32)cc(OC)c1OC [25E] | > 200 µg/mL
32 | COc1ccc(/C=C2/C(=O)OCc3ccccc32)cc1OC [26E, E-4-[(3′,4′-Dimethoxyphenyl)Methylene]-3-Isochromanone] | > 200 µg/mL
33 | O=C1OCc2ccccc2/C1=C\c1cccc(Cl)c1 [28E, E-4-[(3′-Chlorophenyl)Methylene]-3-Isochromanone] | > 200 µg/mL
34 | O=C1OCc2ccccc2/C1=C/c1cccc(Cl)c1 [28Z, Z-4-[(3′-chlorophenyl)methylene]-3-isochromanone] | > 200 µg/mL
35 | O=C1OCc2ccccc2/C1=C\c1ccc(O)cc1 [29E, E-4-[(4′-Hydroxyphenyl)Methylene]-3-Isochromanone] | > 200 µg/mL
36 | COc1cc(/C=C2/C(=O)OCc3ccccc32)ccc1O [30E, E-4-[(4′-Hydroxy-3′-Methoxyphenyl)Methylene]-3-Isochromanone] | 150 µg/mL (≈ 531 µM)

Tested on: C. albicans wild-type
Test: microbe, parasite or virus in culture
Set-up: species or system whole yeast cells; micro-culture broth dilution MIC in YES at 30 C, turbidity, complete growth inhibition
Settings: Candida albicans, read-out: MIC
Remark: another data set of the same source
Procedure: as §1

Row | SMILES | MIC
37 | Cc1cc(C)c(/C=C2/C(=O)OCc3ccccc32)c(C)c1 [18E] | > 200 µg/mL
38 | Cc1ccccc1/C=C1/C(=O)OCc2ccccc21 [20E] | > 200 µg/mL
39 | COc1cccc(/C=C2/C(=O)OCc3ccccc32)c1 [22E] | > 200 µg/mL
40 | O=C1OCc2ccccc2/C1=C\c1ccc(Cl)cc1 [23E] | > 200 µg/mL
41 | O=C1OCc2ccccc2/C1=C\c1cccc([N+](=O)[O-])c1 [24E] | > 200 µg/mL
42 | O=C1OCc2ccccc2/C1=C/c1cccc([N+](=O)[O-])c1 [24Z] | > 200 µg/mL
43 | COc1cc(/C=C2/C(=O)OCc3ccccc32)cc(OC)c1OC [25E] | > 200 µg/mL
44 | COc1ccc(/C=C2/C(=O)OCc3ccccc32)cc1OC [26E, E-4-[(3′,4′-Dimethoxyphenyl)Methylene]-3-Isochromanone] | > 200 µg/mL
45 | O=C1OCc2ccccc2/C1=C\c1cccc(Cl)c1 [28E, E-4-[(3′-Chlorophenyl)Methylene]-3-Isochromanone] | > 200 µg/mL
46 | O=C1OCc2ccccc2/C1=C/c1cccc(Cl)c1 [28Z, Z-4-[(3′-chlorophenyl)methylene]-3-isochromanone] | > 200 µg/mL
47 | O=C1OCc2ccccc2/C1=C\c1ccc(O)cc1 [29E, E-4-[(4′-Hydroxyphenyl)Methylene]-3-Isochromanone] | > 200 µg/mL
48 | COc1cc(/C=C2/C(=O)OCc3ccccc32)ccc1O [30E, E-4-[(4′-Hydroxy-3′-Methoxyphenyl)Methylene]-3-Isochromanone] | > 200 µg/mL
